Results as given in patent publication US12479887B2, “Inhibitors for protein n-terminal methyltransferase and uses thereof” (Purdue Research Foundation, priority 2018, dated 2025).
Non-standard residues stand in square brackets, D forms with d. Residues, ends and D or L forms follow the SMILES beside them. *: point of attachment. Acetyl(1-naphthyl) = O=C(Cc1cccc2ccccc12)*; dHpg = N[C@@H](C(=O)O)c1ccc(O)cc1; Hpg = N[C@H](C(=O)O)c1ccc(O)cc1; Pra = C#CC[C@H](N)C(=O)O; X1 = O=C(Cc1ccc(O)cc1)*; ClAc = O=C(CCl)*

Each compound was assayed against N-terminal methyltransferase1 (NTMT1) (Homo sapiens (Human), UniProt Q9BV86) (assay: NTMT1 inhibition IC50, SAH hydrolase-coupled fluorescence assay). Details: not given.
Assay type: biochemical
Protocol: The inhibitors ranging in concentration from (2 μL of 0.14 μM-1 mM) and following a three-fold dilution were incubated with 0.2 μM NTMT1 with a reaction mixture which was added in the following order: H2O, 10× Tris-HCl Buffer (2 μL of 250 mM Tris pH 7.4, 100 mM NaCl, and 500 mM KCl), SAH hydrolase (1 μL of 100 μM), SAM (0.2 μL of 10 mM), NTMT1 (1 μL of 4 μM) and ThioGlo1 (0.2 μL of 1.5 mM DMSO solution). After 10 mins of incubation at 37° C., the reaction was initiated with 1 μM of GPKRIA. Fluorescence intensity was monitored using a BMG ClarioStar microplate reader (Ex=380 nm, Em=510 nm) at 37° C. for 15 min. The rates were fit to the log[inhibitor] vs response model using least squares nonlinear regression through GraphPad Prism 7 software. All experiments were performed in triplicate.

Chain of N-terminal methyltransferase1 (NTMT1) (Q9BV86 1-222): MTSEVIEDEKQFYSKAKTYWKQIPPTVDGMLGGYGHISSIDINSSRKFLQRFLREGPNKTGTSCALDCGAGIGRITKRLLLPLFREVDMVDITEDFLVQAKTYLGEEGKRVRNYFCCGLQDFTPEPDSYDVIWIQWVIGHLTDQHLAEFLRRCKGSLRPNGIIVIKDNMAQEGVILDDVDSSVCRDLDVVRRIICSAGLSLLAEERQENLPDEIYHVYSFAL

IC50	SMILES
> 100000 nM	N=C(N)NCCC[C@H](NC(=O)[C@H](CCCCN)NC(=O)[C@@H]1CCCN1C(=O)[C@@H](NC(=O)Cc1ccc(O)cc1)c1ccc(O)cc1)C(N)=O [Compound 22, (S)—N—((S)-6-amino-1-(((S)-1-amino-5-guanidino-1-oxopentan-2-yl)amino)-1-oxohexan-2-yl)-1-((S)-2-(4-hydroxyphenyl)-2-(2-(4-hydroxyphenyl)acetamido)acetyl)pyrrolidine-2-carboxamide] (X1-[Hpg]PKR-NH2)
40 nM	N=C(N)NCCC[C@H](NC(=O)[C@H](CCCNC(=N)N)NC(=O)[C@H](CCCCN)NC(=O)[C@@H]1CCCN1C(=O)Cc1cccc2ccccc12)C(N)=O [Compound 25, (S)—N—((S)-6-amino-1-(((S)-1-(((S)-1-amino-5-guanidino-1-oxopentan-2-yl)amino)-5-guanidino-1-oxopentan-2-yl)amino)-1-oxohexan-2-yl)-1-(2-(naphthalen-1-yl)acetyl)pyrrolidine-2-carboxamide] ({Acetyl(1-naphthyl)}-PKRR-NH2)
400 ± 30 nM	N=C(N)NCCC[C@H](NC(=O)[C@H](CCCCN)NC(=O)[C@@H]1CCCN1C(=O)Cc1cccc2ccccc12)C(N)=O [Compound 1, (S)—N—((S)-6-amino-1-(((S)-1-amino-5-guanidino-1-oxopentan-2-yl)amino)-1-oxohexan-2-yl)-1-(2-(naphthalen-1-yl)acetyl)pyrrolidine-2-carboxamide]
> 100000 nM	N=C(N)NCCC[C@H](NC(=O)[C@H](CCCCN)NC(=O)[C@@H]1CCCN1C(=O)[C@H](NC(=O)Cc1ccc(O)cc1)c1ccc(O)cc1)C(N)=O [Compound 21, (S)—N—((S)-6-amino-1-(((S)-1-amino-5-guanidino-1-oxopentan-2-yl)amino)-1-oxohexan-2-yl)-1-((R)-2-(4-hydroxyphenyl)-2-(2-(4-hydroxyphenyl)acetamido)acetyl)pyrrolidine-2-carboxamide] (X1-[dHpg]PKR-NH2)
79 ± 13 nM	N=C(N)NCCC[C@H](NC(=O)[C@H](CCCCN)NC(=O)[C@@H]1CCCN1C(=O)Cc1cccc2ccccc12)C(=O)N[C@@H](Cc1ccc(O)cc1)C(N)=O [Compound 44, (S)—N—((S)-6-amino-1-(((S)-1-(((S)-1-amino-3-(4-hydroxyphenyl)-1-oxopropan-2-yl)amino)-5-guanidino-1-oxopentan-2-yl)amino)-1-oxohexan-2-yl)-1-(2-(naphthalen-1-yl)acetyl)pyrrolidine-2-carboxamide] ({Acetyl(1-naphthyl)}-PKRY-NH2)
60 nM	CC[C@H](C)[C@H](NC(=O)[C@H](CCCNC(=N)N)NC(=O)[C@H](CCCCN)NC(=O)[C@@H]1CCCN1C(=O)Cc1cccc2ccccc12)C(N)=O [Compound 24, (S)—N—((S)-6-amino-1-(((S)-1-(((2S,3S)-1-amino-3-methyl-1-oxopentan-2-yl)amino)-5-guanidino-1-oxopentan-2-yl)amino)-1-oxohexan-2-yl)-1-(2-(naphthalen-1-yl)acetyl)pyrrolidine-2-carboxamide] ({Acetyl(1-naphthyl)}-PKRI-NH2)
> 100000 nM	N=C(N)NCCC[C@H](NC(=O)[C@H](CCCCN)NC(=O)[C@@H]1CCCN1C(=O)[C@@H](NCCc1ccc(O)cc1)c1ccc(O)cc1)C(N)=O [Compound 47, (S)—N—((S)-6-amino-1-(((S)-1-amino-5-guanidino-1-oxopentan-2-yl)amino)-1-oxohexan-2-yl)-1-((S)-2-((4-hydroxyphenethyl)amino)-2-(4-hydroxyphenyl)acetyl)pyrrolidine-2-carboxamide]
90 nM	C#CC[C@H](NC(=O)[C@H](CCCNC(=N)N)NC(=O)[C@H](CCCCN)NC(=O)[C@@H]1CCCN1C(=O)Cc1cccc2ccccc12)C(N)=O [Compound 26, (S)—N—((S)-6-amino-1-(((S)-1-(((S)-1-amino-1-oxopent-4-yn-2-yl)amino)-5-guanidino-1-oxopentan-2-yl)amino)-1-oxohexan-2-yl)-1-(2-(naphthalen-1-yl)acetyl)pyrrolidine-2-carboxamide] ({Acetyl(1-naphthyl)}-PKR[Pra]-NH2)
> 100000 nM	N=C(N)NCCC[C@H](NC(=O)[C@H](CCCCN)NC(=O)[C@@H]1CCCN1C(=O)[C@H](NCCc1ccc(O)cc1)c1ccc(O)cc1)C(N)=O [Compound 23, (S)—N—((S)-6-amino-1-(((S)-1-amino-5-guanidino-1-oxopentan-2-yl)amino)-1-oxohexan-2-yl)-1-((R)-2-((4-hydroxyphenethyl)amino)-2-(4-hydroxyphenyl)acetyl)pyrrolidine-2-carboxamide]
2500 nM	N=C(N)NCCC[C@H](NC(=O)[C@H](CCCCN)NC(=O)[C@@H]1CCCN1C(=O)/C=C/c1ccc(O)cc1)C(N)=O [Compound 17, (S)—N—((S)-6-amino-1-(((S)-1-amino-5-guanidino-1-oxopentan-2-yl)amino)-1-oxohexan-2-yl)-1-((E)-3-(4-hydroxyphenyl)acryloyl)pyrrolidine-2-carboxamide]
95 ± 26 nM	N=C(N)NCCC[C@H](NC(=O)[C@H](CCCCN)NC(=O)[C@@H]1CCCN1C(=O)Cc1cccc2ccccc12)C(=O)N[C@@H](Cc1c[nH]c2ccccc12)C(N)=O [Compound 43] ({Acetyl(1-naphthyl)}-PKRW-NH2)

Same assay, conditions: 0.2 μM NTMT1, 1 μM GPKRIA peptide substrate, 37° C., ThioGlo1 fluorescence

IC50	SMILES
> 100000 nM	NCCCC[C@H](NC(=O)CN(C(=O)Cc1cccc2ccccc12)C1CCCC1)C(N)=O [Compound 10, (S)-6-amino-2-(2-(N-cyclopentyl-2-(naphthalen-1-yl)acetamido)acetamido)hexanamide]
160 ± 70 nM	N=C(N)NCCC[C@H](NC(=O)[C@H](CCCCN)NC(=O)[C@@H]1CCCN1C(=O)Cc1cccc2[nH]ccc12)C(N)=O [Compound 4, (S)-1-(2-(1H-indol-4-yl)acetyl)-N—((S)-6-amino-1-(((S)-1-amino-5-guanidino-1-oxopentan-2-yl)amino)-1-oxohexan-2-yl)pyrrolidine-2-carboxamide]
> 100000 nM	NCCCC[C@H](NC(=O)c1cn(CC(=O)Nc2ccccc2)nn1)C(N)=O [Compound 11, (S)—N-(1,6-diamino-1-oxohexan-2-yl)-1-(2-oxo-2-(phenylamino)ethyl)-1H-1,2,3-triazole-4-carboxamide]
5760 nM	NCCCC[C@H](NC(=O)[C@@H]1CCCN1C(=O)Cc1cccc2ccccc12)C(=O)N[C@@H](CCC(=O)O)C(N)=O [Compound 39, (S)-5-amino-4-((S)-6-amino-2-((S)-1-(2-(naphthalen-1-yl)acetyl)pyrrolidine-2-carboxamido)hexanamido)-5-oxopentanoic acid]
68 nM	N=C(N)NCCC[C@H](NC(=O)[C@H](CCCNC(=N)N)NC(=O)[C@H](CCCNC(=N)N)NC(=O)[C@H](CCCNC(=N)N)NC(=O)[C@H](CCCNC(=N)N)NC(=O)[C@H](CCCNC(=N)N)NC(=O)[C@H](CCCCN)NC(=O)[C@@H]1CCCN1C(=O)Cc1cccc2ccccc12)C(N)=O [Compound 34, (S)—N-((6S,9S,12S,15S,18S,21S,24S)-1,28-diamino-6-carbamoyl-9,12,15,18,21-pentakis(3-guanidinopropyl)-1-imino-8,11,14,17,20,23-hexaoxo-2,7,10,13,16,19,22-heptaazaoctacosan-24-yl)-1-(2-(naphthalen-1-yl)acetyl)pyrrolidine-2-carboxamide] ({Acetyl(1-naphthyl)}-PKRRRRRR-NH2)
1500 nM	N=C(N)NCCC[C@H](NC(=O)[C@H](CCCCN)NC(=O)[C@@H]1CCCN1C(=O)Cc1ccc(CO)cc1)C(N)=O [Compound 18, (S)—N—((S)-6-amino-1-(((S)-1-amino-5-guanidino-1-oxopentan-2-yl)amino)-1-oxohexan-2-yl)-1-(2-(4-(hydroxymethyl)phenyl)acetyl)pyrrolidine-2-carboxamide]

SMILES	IC50
N=C(N)NCCC[C@H](NC(=O)[C@H](CCCCN)NC(=O)[C@@H]1CCCN1C(=O)[C@@H]1CCCN1C(=O)CCl)C(=O)O [Compound 12, (2-chloroacetyl)-L-prolyl-L-prolyl-L-lysyl-L-arginine] (ClAc-PPKR-OH)	16000 ± 5900 nM
N=C(N)NCCC[C@H](NC(=O)[C@H](CCCNC(=N)N)NC(=O)[C@H](CCCNC(=N)N)NC(=O)[C@H](CCC(N)=O)NC(=O)[C@H](CCCNC(=N)N)NC(=O)[C@H](CCCNC(=N)N)NC(=O)[C@H](CCCCN)NC(=O)[C@H](CCCCN)NC(=O)[C@H](CCCNC(=N)N)NC(=O)CNC(=O)[C@H](CCCNC(=N)N)NC(=O)[C@H](CCCCN)NC(=O)[C@@H]1CCCN1C(=O)Cc1ccc(O)cc1)C(=O)O [Compound 32, (2-(4-hydroxyphenyl)acetyl)-L-prolyl-L-lysyl-L-arginylglycyl-L-arginyl-L-lysyl-L-lysyl-L-arginyl-L-arginyl-L-glutaminyl-L-arginyl-L-arginyl-L-arginine]	230 ± 30 nM
